The data set deals with rodent carcinogenicity bioassays, tumor incidence. The data set is described as follows: CCRIS carcinogenicity studies. The procedure, abridged: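 Archive of carcinogenicity, mutagenicity, tumor promotion and tumor inhibition results drawn from journals, NCI reports and other sources, expert-reviewed; covers 1985-2011 and is no longer updated.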

The source made the active and inactive calls. No rule for the calls is given here.

The values that follow come from PubChem BioAssay AID1259411 (Chemical Carcinogenesis Research Information System (CCRIS), 2018).

Consider `c1ccc2c(c1)ccc1ccccc12`, for which, under “Species: RAT, Strain/Sex: OSBORNE-MENDEL/FEMALE, Route: INTRAPULMONARY IMPLANT, Dose: 0, 1, 3, 10 MG IN BEESWAX AND TRIOCTANOIN IMPLANTED IN LUNG (STUDY DURATION: 141 WK), Dose: 0, 1, 3, 10 MG IN BEESWAX AND TRIOCTANOIN IMPLANTED IN LUNG (STUDY DURATION: 141 WK)”, the carcinogen call is “inactive; negative”.

Take `Nc1ccc2c(c1)Cc1ccccc1-2`: the carcinogen call (Species: MOUSE, Strain/Sex: MALE,FEMALE, Route: DERMAL, Dose: 4% SOLN IN ACETONE, 90 APPLICATIONS (TOTAL DOSE: 270 MG), Tumor Site: Type of Lesion: LIVER: HEPATOMA, INTESTINES) is “active; positive”; the carcinogen call (Species: RAT, Strain/Sex: F344/MALE, Route: INJECTION, Dose: 0, 1 UMOL IN 0.5 ML OF SOLUTION CONTAINING 0.4 ML PHOSPHATE BUFFERED SALINE/ GENTAMYCIN (PH 7) AND 0.1 ML DMSO INJECTED) is “inactive; negative”; the carcinogen call (Species: RAT, Strain/Sex: HOLTZMAN/FEMALE, Route: ORAL, Dose: 1.62 MMOL/KG IN DIET, Tumor Site: Type of Lesion: MAMMARY GLAND, EAR (DUCT)) is “active; positive”; the carcinogen call (Species: RAT, Strain/Sex: HOLTZMAN/MALE, Route: ORAL, Dose: 1.62 MMOL/KG IN DIET, Tumor Site: Type of Lesion: LIVER, EAR (DUCT), INTESTINES (SMALL), Tumor Site: Type of Lesion: LIVER, EAR (DUCT), INTESTINES (SMALL)) is “active; positive”; the carcinogen call (Species: RAT, Strain/Sex: WISTAR/MALE, Route: DERMAL, Dose: 4% SOLN IN ACETONE 3/WK FOR 30 WK (TOTAL DOSE: 270 MG), Tumor Site: Type of Lesion: LIVER: HEPATOCELLULAR CARCINOMA, EAR (ZYMBAL GLAND): CARCINOMA) is “active; positive”.

Consider `S=C(NC1CCCCC1)NC1CCCCC1`, for which the carcinogen call was “inactive; negative” (Species: MOUSE, Strain/Sex: B6C3F1/FEMALE, Route: ORAL, Dose: 0, 25000, 50000 PPM IN DIET, Dose: 0, 25000, 50000 PPM IN DIET); “inactive; negative” (Species: MOUSE, Strain/Sex: B6C3F1/MALE, Route: ORAL, Dose: 0, 25000, 50000 PPM IN DIET, Dose: 0, 25000, 50000 PPM IN DIET); “inactive; negative” (Species: RAT, Strain/Sex: F344/FEMALE, Route: ORAL, Dose: 0, 25000, 50000 PPM IN DIET, Dose: 0, 25000, 50000 PPM IN DIET); “inactive; negative” (Species: RAT, Strain/Sex: F344/MALE, Route: ORAL, Dose: 0, 25000, 50000 PPM IN DIET, Dose: 0, 25000, 50000 PPM IN DIET).

On to `O=C(O)/C=C/c1ccc(O)c(O)c1`, for which the carcinogen call is “active; positive” (Species: MOUSE, Strain/Sex: B6C3F1/FEMALE, Route: ORAL, Dose: 0, 2% IN DIET FOR 96 WK (STUDY DURATION: 96 WK), Tumor Site: Type of Lesion: KIDNEY (TUBULAR CELL): ADENOMA); “inactive; negative” (Species: MOUSE, Strain/Sex: B6C3F1/FEMALE, Route: ORAL, Dose: 0, 2% IN POWDERED BASAL DIET FOR 96 WK (STUDY DURATION: 96 WK)); “active; positive” (Species: MOUSE, Strain/Sex: B6C3F1/MALE, Route: ORAL, Dose: 0, 2% IN DIET FOR 96 WK (STUDY DURATION: 96 WK), Tumor Site: Type of Lesion: LUNG (ALVEOLAR CELL): ADENOMA OR ADENOCARCINOMA); “inactive; negative” (Species: MOUSE, Strain/Sex: B6C3F1/MALE, Route: ORAL, Dose: 0, 2% IN POWDERED BASAL DIET FOR 96 WK (STUDY DURATION: 96 WK)); “active; positive” (Species: RAT, Strain/Sex: F344/FEMALE, Route: ORAL, Dose: 0, 2% IN DIET FOR 104 WK (STUDY DURATION: 104 WK), Tumor Site: Type of Lesion: FORESTOMACH: PAPILLOMA, CARCINOMA); “active; positive” (Species: RAT, Strain/Sex: F344/FEMALE, Route: ORAL, Dose: 0, 2% IN DIET FOR 104 WK (STUDY DURATION: 104 WK), Tumor Site: Type of Lesion: FORESTOMACH: SQUAMOUS CELL CARCINOMA). The carcinogen call is “active; positive” (Species: RAT, Strain/Sex: F344/FEMALE, Route: ORAL, Dose: 0, 2% IN POWDERED BASAL DIET FOR 104 WK (STUDY DURATION: 104 WK), Tumor Site: Type of Lesion: FORESTOMACH: PAPILLOMA, SQUAMOUS CELL CARCINOMA); “active; positive” (Species: RAT, Strain/Sex: F344/MALE, Route: ORAL, Dose: 0, 0.4% IN DIET FOR DURATION OF STUDY (STUDY DURATION: 104 WK), Tumor Site: Type of Lesion: FORESTOMACH: PAPILLOMA); “active; positive” (Species: RAT, Strain/Sex: F344/MALE, Route: ORAL, Dose: 0, 2% IN DIET FOR 104 WK (STUDY DURATION: 104 WK), Tumor Site: Type of Lesion: FORESTOMACH: PAPILLOMA, CARCINOMA); “active; positive” (Species: RAT, Strain/Sex: F344/MALE, Route: ORAL, Dose: 0, 2% IN DIET FOR 104 WK (STUDY DURATION: 104 WK), Tumor Site: Type of Lesion: FORESTOMACH: SQUAMOUS CELL CARCINOMA); “active; positive” (Species: RAT, Strain/Sex: F344/MALE, Route: ORAL, Dose: 0, 2% IN POWDERED BASAL DIET FOR 104 WK (STUDY DURATION: 104 WK), Tumor Site: Type of Lesion: FORESTOMACH: PAPILLOMA, SQUAMOUS CELL CARCINOMA); “active; positive” (Species: RAT, Strain/Sex: F344/MALE, Route: ORAL, Dose: 2% IN THE DIET FOR 104 WK (STUDY DURATION: 104 WK), Tumor Site: Type of Lesion: FORESTOMACH: PAPILLOMA, SQUAMOUS CELL CARCINOMA).

With `CCN(N=O)C(=O)NCCO`, the carcinogen call is “active; positive” (Species: RAT, Strain/Sex: F344/FEMALE, Route: INTRAVESICULAR, Dose: 0, 3.6 MG 2/WK FOR 30 WK (STUDY DURATION: LIFETIME), Tumor Site: Type of Lesion: BLADDER: TUMOR, BRAIN: TUMOR); “active; positive” (Species: RAT, Strain/Sex: F344/FEMALE, Route: ORAL, Dose: 0, 37, 74 MG/L IN DRINKING WATER 5 D/WK FOR 30 WK (STUDY DURATION: LIFETIME), Dose: 0, 37, 74 MG/L IN DRINKING WATER 5 D/WK FOR 30 WK (STUDY DURATION: LIFETIME), Tumor Site: Type of Lesion: BLADDER: TUMOR, MAMMARY GLAND: TUMOR, UTERUS: TUMOR, NERVOUS SYSTEM: TUMOR, SKIN: TUMOR, MOUTH: TUMOR, Tumor Site: Type of Lesion: BLADDER: TUMOR, MAMMARY GLAND: TUMOR, UTERUS: TUMOR, NERVOUS SYSTEM: TUMOR, SKIN: TUMOR, MOUTH: TUMOR); “active; positive” (Species: RAT, Strain/Sex: F344/MALE, Route: GAVAGE, Dose: 0, 3.6 MG IN 0.2 ML ETHYL ACETATE/CORN OIL (1:1) 2/WK FOR 31 WK (TOTAL DOSE: 223 MG) (STUDY DURATION: 80 WK), Tumor Site: Type of Lesion: LUNG: CARCINOMA, ADENOMA, BRAIN: TUMORS, THYROID: CARCINOMA OR ADENOMA, PERITONEUM: MESOTHELIOMA, ZYMBAL GLAND: CARCINOM, Tumor Site: Type of Lesion: LUNG: CARCINOMA, ADENOMA, BRAIN: TUMORS, THYROID: CARCINOMA OR ADENOMA, PERITONEUM: MESOTHELIOMA, ZYMBAL GLAND: CARCINOM); “active; positive” (Species: RAT, Strain/Sex: F344/MALE, Route: ORAL, Dose: 0, 37, 74 MG/L IN DRINKING WATER 5 D/WK FOR 30 WK (STUDY DURATION: LIFETIME), Dose: 0, 37, 74 MG/L IN DRINKING WATER 5 D/WK FOR 30 WK (STUDY DURATION: LIFETIME), Tumor Site: Type of Lesion: LUNG: TUMOR, BLADDER: TUMOR, MESOTHELIUM: TUMOR, NERVOUS SYSTEM: TUMOR, SKIN: TUMOR, Tumor Site: Type of Lesion: LUNG: TUMOR, BLADDER: TUMOR, MESOTHELIUM: TUMOR, NERVOUS SYSTEM: TUMOR, SKIN: TUMOR).

With `CCOC(=O)C(C(=O)OCC)=C(NO)c1ccccc1`, the carcinogen call (Species: Mouse, Strain/Sex: Swiss Albino/Female (60/sex/group), Route: Oral, Dose: 0, 10, 30, 100 ppm in feed for 18 mo, Dose: 0, 10, 30, 100 ppm in feed for 18 mo) is “inactive; negative; purity 97%”; the carcinogen call (Species: Mouse, Strain/Sex: Swiss Albino/Male (60/sex/group), Route: Oral, Dose: 0, 10, 30, 100 ppm in feed for 18 mo, Dose: 0, 10, 30, 100 ppm in feed for 18 mo, Tumor Site: Type of Lesion: Liver: Hepatocellular adenoma (2/47, 4/48, 3/49, 5/53), Hepatocellular carcinoma (0/47, 0/48, 2/49, 4/53), Combined (2/4, Tumor Site: Type of Lesion: Liver: Hepatocellular adenoma (2/47, 4/48, 3/49, 5/53), Hepatocellular carcinoma (0/47, 0/48, 2/49, 4/53), Combined (2/4) was “active; positive (statistically significant trend but not incidence); purity 97%”; the carcinogen call (Species: Rat, Strain/Sex: Sprague-Dawley /Female (70/sex/group in dosed animals; 105 controls/sex), Route: Oral, Dose: 0, 60, 190, 600 ppm in feed for 104 wks, Dose: 0, 60, 190, 600 ppm in feed for 104 wks) was “inactive; negative: purity 98.5%; liver: nonneoplastic liver lesions (eosinophilic cellula”; the carcinogen call (Species: Rat, Strain/Sex: Sprague-Dawley /Male (70/sex/group in dosed animals; 105 controls/sex), Route: Oral, Dose: 0, 60, 190, 600 ppm in feed for 104 wks, Dose: 0, 60, 190, 600 ppm in feed for 104 wks) was “inactive; negative: purity 98.5%; liver: nonneoplastic liver lesions (eosinophilic cellula”.
